Experimental data reported in ChEMBL document CHEMBL6103583, “Purified Monascus Pigments: Biological Activities and Mechanisms of Action” (J Nat Prod, 2025).
≈ marks a conversion by molar mass, not a printed value.

How the values were obtained:
Klebsiella aerogenes = assay: Antibacterial activity against Enterobacter aerogenes KCCM 12177 assessed as reduction in bacterial growth incubated for 12 hrs by broth micro-dilution method; type: functional
Staphylococcus aureus [1] = assay: Antibacterial activity against Staphylococcus aureus KCCM 11817 assessed as reduction in bacterial growth incubated for 12 hrs by broth micro-dilution method; type: functional
Staphylococcus aureus [2] = assay: Antibacterial activity against Staphylococcus aureus […] assessed as reduction in bacterial growth incubated for 12 hrs by broth micro-dilution method; type: functional
Bacillus subtilis = assay: Antibacterial activity against Bacillus subtilis KCCM 11316 assessed as reduction in bacterial growth incubated for 12 hrs by broth micro-dilution method; type: functional
Enterococcus faecalis = assay: Antibacterial activity against Enterococcus faecalis KCCM 11814 assessed as reduction in bacterial growth incubated for 12 hrs by broth micro-dilution method; type: functional
Escherichia coli [3] = assay: Antibacterial activity against Escherichia coli KCCM 11234 assessed as reduction in bacterial growth incubated for 12 hrs by broth micro-dilution method; type: functional
Haemophilus influenzae = assay: Antibacterial activity against Haemophilus influenzae KCCM 11903 assessed as reduction in bacterial growth incubated for 12 hrs by broth micro-dilution method; type: functional
Escherichia coli [4] = assay: Antibacterial activity against Escherichia coli KCCM 11234 assessed as reduction in bacterial growth incubated; type: functional
Proteus vulgaris = assay: Antibacterial activity against Proteus vulgaris KCCM 11906 assessed as reduction in bacterial growth incubated for 12 hrs by broth micro-dilution method; type: functional
Pseudomonas aeruginosa = assay: Antibacterial activity against Pseudomonas aeruginosa KCCM 11328 assessed as reduction in bacterial growth incubated for 12 hrs by micro-dilution method; type: functional
[5] = Antibacterial activity against Salmonella choleraesuis KCCM 11806 assessed as reduction in bacterial growth; type: functional, Salmonella enterica subsp. enterica serovar Choleraesuis; conditions: Salmonella enterica
Salmonella typhimurium = assay: Antibacterial activity against Salmonella Typhimurium KCCM 11806 assessed as reduction in bacterial growth incubated for 12 hrs by micro-dilution method; type: functional, Salmonella enterica subsp. enterica serovar Typhimurium; conditions: Salmonella enterica
Shigella sonnei = assay: Antibacterial activity against Shigella sonnei KCCM 40253 assessed as reduction in bacterial growth incubated for 12 hrs by micro-dilution method; type: functional
Aspergillus niger = assay: Antifungal activity against Aspergillus niger KCCM 11239 assessed as reduction in […] incubated for 12 hrs by micro-dilution method; type: functional
Candida albicans = assay: Antifungal activity against Candida albicans KCCM 10231 assessed as reduction in […] incubated for 12 hrs by micro-dilution method; type: functional
Penicillium citrinum = assay: Antifungal activity against Penicillium citrinum KCCM 11663 assessed as reduction in […] incubated for 12 hrs by micro-dilution method; type: functional
Penicillium digitatum = assay: Antifungal activity against Penicillium digitatum KCCM 60140 assessed as reduction in […] incubated for 12 hrs by micro-dilution method; type: functional
Escherichia coli [6] = assay: Antibacterial activity against Escherichia coli assessed as reduction in bacterial growth by broth microdilution method; type: functional
RAW264.7 [7] = assay: Antiinflammatory activity against mouse RAW264.7 cells assessed as inhibition of LPS-NO production by Griess reagent based assay; type: functional, cell-based
WiDr [8] = assay: Antiproliferative activity against human WiDr cells assessed as reduction in cell growth incubated for 3 days by MTT assay; type: functional, cell-based; conditions: 72 h
HEp-2 [9] = assay: Antiproliferative activity against human HEp-2 cells assessed as reduction in cell growth incubated for 3 days by MTT assay; type: functional, cell-based; conditions: HEp-2, 72 h
RAW264.7 [10] = assay: Antiinflammatory activity against mouse RAW264.7 cells assessed as inhibition of LPS-NO production incubated for 24 hrs by Griess reagent based assay; type: functional, cell-based; conditions: RAW264.7, 24 h
HEp-2 [11] = assay: Antiproliferative activity against human HEp-2 cells assessed as reduction in cell viability incubated for 72 hrs by MTT assay; type: functional, cell-based; conditions: HEp-2, 72 h
WiDr [12] = assay: Antiproliferative activity against human WiDr cells assessed as reduction in cell viability incubated for 72 hrs by MTT assay; type: functional, cell-based
AGS = assay: Antiproliferative activity against human AGS cells assessed as reduction in cell viability incubated for 24 hrs by MTT assay; type: functional, cell-based
BGC-823 = assay: Antiproliferative activity against human BGC-823 cells assessed as reduction in cell viability incubated for 24 hrs by MTT assay; type: functional, cell-based; conditions: BGC-823, 24 h
HeLa [13] = assay: Antiproliferative activity against human HeLa cells assessed as reduction in cell viability incubated for 24 hrs by MTT assay; type: functional, cell-based
HeLa [14] = assay: Antiproliferative activity against human HeLa cells assessed as reduction in cell viability incubated for 24 hrs under light irradiation by MTT assay; type: functional, cell-based; conditions: light or radiation study
HepG2 = assay: Antiproliferative activity against human HepG2 cells assessed as reduction in cell viability incubated for 24 hrs by MTT assay; type: functional, cell-based; conditions: HepG2, 24 h
HT-29 = assay: Antiproliferative activity against human HT-29 cells assessed as reduction in cell viability incubated for 24 hrs by MTT assay; type: functional, cell-based; conditions: HT-29, 24 h
MKN-45 = assay: Antiproliferative activity against human MKN-45 cells assessed as reduction in cell viability incubated for 24 hrs by MTT assay; type: functional, cell-based; conditions: MKN-45, 24 h
SH-SY5Y = assay: Antiproliferative activity against human SH-SY5Y cells assessed as reduction in cell viability incubated for 24 hrs by MTT assay; type: functional, cell-based

Compound: N[C@@H](CS)C(=O)O [CYSTEINE]
- MIC (Klebsiella aerogenes): 8 µg/mL (≈ 66 µM)
- MIC (Staphylococcus aureus [1]): 16 µg/mL (≈ 132 µM)
- MIC (Staphylococcus aureus [2]): 16 µg/mL (≈ 132 µM)
- MIC (Bacillus subtilis): 32 µg/mL (≈ 264 µM)
- MIC (Enterococcus faecalis): 4 µg/mL (≈ 33 µM)
- MIC (Escherichia coli [3]): 64 µg/mL (≈ 528 µM)
- MIC (Haemophilus influenzae): 8 µg/mL (≈ 66 µM)
- MIC (Escherichia coli [4]): 64 µg/mL (≈ 528 µM)
- MIC (Proteus vulgaris): 8 µg/mL (≈ 66 µM)
- MIC (Pseudomonas aeruginosa): 16 µg/mL (≈ 132 µM)
- MIC [5]: 16 µg/mL (≈ 132 µM)
- MIC (Salmonella typhimurium): 8 µg/mL (≈ 66 µM)
- MIC (Shigella sonnei): 16 µg/mL (≈ 132 µM)
- MIC (Aspergillus niger): 8 µg/mL (≈ 66 µM)
- MIC (Candida albicans): 16 µg/mL (≈ 132 µM)
- MIC (Penicillium citrinum): 32 µg/mL (≈ 264 µM)
- MIC (Penicillium digitatum): 32 µg/mL (≈ 264 µM)

Compound: N[C@@H](Cc1ccccc1)C(=O)O [PHENYLALANINE]
- MIC (Klebsiella aerogenes): 16 µg/mL (≈ 96.9 µM)
- MIC (Staphylococcus aureus [1]): 16 µg/mL (≈ 96.9 µM)
- MIC (Staphylococcus aureus [2]): 8 µg/mL (≈ 48.4 µM)
- MIC (Bacillus subtilis): 8 µg/mL (≈ 48.4 µM)
- MIC (Enterococcus faecalis): 4 µg/mL (≈ 24.2 µM)
- MIC (Escherichia coli [6]): 16 µg/mL (≈ 96.9 µM)
- MIC (Escherichia coli [3]): 8 µg/mL (≈ 48.4 µM)
- MIC (Haemophilus influenzae): 16 µg/mL (≈ 96.9 µM)
- MIC (Escherichia coli [4]): 8 µg/mL (≈ 48.4 µM)
- MIC (Proteus vulgaris): 16 µg/mL (≈ 96.9 µM)
- MIC (Pseudomonas aeruginosa): 8 µg/mL (≈ 48.4 µM)
- MIC [5]: 8 µg/mL (≈ 48.4 µM)
- MIC (Salmonella typhimurium): 4 µg/mL (≈ 24.2 µM)
- MIC (Shigella sonnei): 16 µg/mL (≈ 96.9 µM)
- MIC (Aspergillus niger): 8 µg/mL (≈ 48.4 µM)
- MIC (Candida albicans): 8 µg/mL (≈ 48.4 µM)
- MIC (Penicillium citrinum): 8 µg/mL (≈ 48.4 µM)
- MIC (Penicillium digitatum): 16 µg/mL (≈ 96.9 µM)

Compound: C/C=C/C1=CC2=C(CO1)C(=O)[C@](C)(O)[C@@H](CC(=O)CCCCCCC)C2
- IC50 (RAW264.7 [7]): 19.7 µM
- IC50 (WiDr [8]): 55.8 µM
- IC50 (HEp-2 [9]): 21 µM

Compound: N[C@H](Cc1ccc(O)cc1)C(=O)O
- MIC (Klebsiella aerogenes): 16 µg/mL (≈ 88.3 µM)
- MIC (Staphylococcus aureus [1]): 16 µg/mL (≈ 88.3 µM)
- MIC (Staphylococcus aureus [2]): 8 µg/mL (≈ 44.2 µM)
- MIC (Bacillus subtilis): 4 µg/mL (≈ 22.1 µM)
- MIC (Enterococcus faecalis): 4 µg/mL (≈ 22.1 µM)
- MIC (Haemophilus influenzae): 16 µg/mL (≈ 88.3 µM)
- MIC (Proteus vulgaris): 16 µg/mL (≈ 88.3 µM)
- MIC (Pseudomonas aeruginosa): 16 µg/mL (≈ 88.3 µM)
- MIC [5]: 4 µg/mL (≈ 22.1 µM)
- MIC (Salmonella typhimurium): 4 µg/mL (≈ 22.1 µM)
- MIC (Shigella sonnei): 8 µg/mL (≈ 44.2 µM)
- MIC (Aspergillus niger): 4 µg/mL (≈ 22.1 µM)
- MIC (Candida albicans): 16 µg/mL (≈ 88.3 µM)
- MIC (Penicillium citrinum): 4 µg/mL (≈ 22.1 µM)
- MIC (Penicillium digitatum): 32 µg/mL (≈ 177 µM)

Compound: C/C=C/C1=CC2=C/C(=C(/C#N)C(=O)CCCCC)C(C)(O)C(=O)C2=CO1 (stereo not given)
- IC50 (RAW264.7 [10]): 2.6 µM

Compound: N[C@H](Cc1ccccc1)C(=O)O [D-PHENYLALANINE]
- MIC (Klebsiella aerogenes): 16 µg/mL (≈ 96.9 µM)
- MIC (Staphylococcus aureus [1]): 16 µg/mL (≈ 96.9 µM)
- MIC (Staphylococcus aureus [2]): 8 µg/mL (≈ 48.4 µM)
- MIC (Bacillus subtilis): 8 µg/mL (≈ 48.4 µM)
- MIC (Enterococcus faecalis): 8 µg/mL (≈ 48.4 µM)
- MIC (Escherichia coli [3]): 8 µg/mL (≈ 48.4 µM)
- MIC (Haemophilus influenzae): 16 µg/mL (≈ 96.9 µM)
- MIC (Escherichia coli [4]): 8 µg/mL (≈ 48.4 µM)
- MIC (Proteus vulgaris): 16 µg/mL (≈ 96.9 µM)
- MIC (Pseudomonas aeruginosa): 16 µg/mL (≈ 96.9 µM)
- MIC [5]: 4 µg/mL (≈ 24.2 µM)
- MIC (Salmonella typhimurium): 8 µg/mL (≈ 48.4 µM)
- MIC (Shigella sonnei): 16 µg/mL (≈ 96.9 µM)
- MIC (Aspergillus niger): 8 µg/mL (≈ 48.4 µM)
- MIC (Candida albicans): 8 µg/mL (≈ 48.4 µM)
- MIC (Penicillium citrinum): 8 µg/mL (≈ 48.4 µM)
- MIC (Penicillium digitatum): 16 µg/mL (≈ 96.9 µM)

Compound: C/C=C/c1cc2c(cn1)C(=O)[C@](C)(O)[C@@H](CC(=O)CCCCC)C2
- IC50 (RAW264.7 [10]): 57.1 µM

Compound: C/C=C/C1=CC2=CC3=C(C(=O)CCCCC)C(=O)O[C@@]3(C)C(=O)C2=CO1
- IC50 (HEp-2 [11]): 107 µM
- IC50 (WiDr [12]): 109 µM
- IC50 (AGS): 7.98 µM
- IC50 (BGC-823): 12.6 µM
- IC50 (HeLa [13]): 93.7 µM
- IC50 (HeLa [14]): 24 µM
- IC50 (HepG2): 44.2 µM
- IC50 (HT-29): 36.7 µM
- IC50 (MKN-45): 14.3 µM
- IC50 (SH-SY5Y): 30.9 µM
- IC50 (RAW264.7 [10]): 21.2 µM

Compound: C/C=C/C1=CC2=CC3=C(C(=O)CCCCC)C(=O)O[C@@]3(C)[C@@H](O)C2=CO1
- IC50 (HEp-2 [11]): 14.8 µM
- IC50 (WiDr [12]): 15.7 µM
- IC50 (RAW264.7 [10]): 3.65 µM

Compound: C/C=C/C1=CC2=CC3=C(C(=O)CCCCCCC)C(=O)O[C@@]3(C)[C@@](O)(CC(C)=O)C2=CO1
- IC50 (HEp-2 [11]): 8.7 µM
- IC50 (WiDr [12]): 11 µM
- IC50 (RAW264.7 [10]): 2.72 µM

Compound: C/C=C/C1=CC2=CC3=C(C(=O)CCCCC)C(=O)OC3(C)C(=O)C2=CN1CCO (stereo not given)
- IC50 (RAW264.7 [10]): 27.5 µM
